Consider six compounds from PubChem BioAssay (NCI).

Holding throughout (assay): NCI-60 cell line screen, 48 h
In assay [1] the test system is UO-31 renal.
Assay [2] relates to ACHN renal.
The test system of assay [3] is EKVX NSCLC.
The test system of assay [4] is SK-MEL-2 melanoma.
For assay [5], the system named is UACC-257 melanoma.
For assay [6], the system named is NCI-H23 lung.
Assay [7] has as its system LOX IMVI melanoma.
Assay [8] has as its system A498 renal.
Assay [9] deals with BT-549 breast.
For assay [10], the system named is MOLT-4 leukemia.

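Grown in 96-well plates, cells were treated for 48 hours with each compound at five concentrations. Insufficient inhibition: endpoint recorded as highest concentration tested. GI50 is the concentration that inhibits growth by half. TGI is the concentration that stops growth completely.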 *1 amine or outer side, *2 acyl side, *3 side chain or, on linkers, in order; H or OH if unused. Where a SMILES comes first, the peptide text is derived from it. CO = O=C([*:1])[*:2]

With `Cc1cccc(Oc2ccc(Nc3ncnc4ccc(NC(=O)CN5CCN(C)CC5)cc34)cc2Cl)c1`, the GI50 in assay [1] was 1.1 µM; in assay [2], 0.655 µM; in [3], 1.12 µM; in assay [4] it was 1.87 µM; in assay [5], 1.9 µM; in assay [6], 1.74 µM. For the same compound, the GI50 is 1.7 µM in assay [7], 1.06 µM in [8] and 1.45 µM in assay [9]. Further, the TGI in assay [1] came to 2.35 µM; in assay [2], 1.96 µM; in assay [3], 2.64 µM; in assay [4], 3.64 µM; in assay [5], 3.85 µM; in assay [6], 3.49 µM. Moreover, the values for the TGI in assay [7], in [8] and in assay [9] were 3.18 µM, 2.28 µM and 2.81 µM, respectively.

In the case of `CCN(CC)CCCN1C(=O)c2c(c(C)c3c(oc4cc(O)ccc43)c2C)C1=O`, the GI50 in assay [1] is 1.66 µM; in assay [2], 1.68 µM; in [3], 1.51 µM; in assay [4] it was 15.7 µM; in assay [5] it was 1.81 µM; in assay [6], 1.85 µM. Moreover, the GI50 in assay [7] is 1.79 µM; in assay [8], 5.06 µM; in assay [9] it was 14.2 µM. The TGI in assay [1] came to 3.09 µM; in assay [2], 3.05 µM; in assay [3] it was 3.16 µM; in assay [4] it was 32.6 µM; in assay [5], 3.62 µM; in [6], 3.72 µM. Also, the TGI in assay [7] stood at 3.3 µM; in assay [8] it was 16.9 µM; in assay [9], 29.6 µM.

`CC(C)C(NC(=O)C(CCCN=C(N)N)NC(=O)NC(Cc1ccccc1)C(=O)O)C(=O)NC(C=O)CCCN=C(N)N` (stereo not drawn) ({Phe-CO}-Arg-Val-Arg-aldehyde; configuration not given here): the GI50 in [1], in assay [2], in [3], in assay [4], in assay [5] and in assay [6] was above 5 µM throughout. The GI50 in [7], in assay [8] and in assay [9] was above 5 µM each time. Also, the TGI in assay [1], in assay [2], in assay [3], in [4], in assay [5] and in assay [6] was above 5 µM in each case. In addition, the TGI in assay [7], in assay [8] and in [9] was above 5 µM in each case.

For the compound `COc1cc(/C=C/C(=O)CC(=O)/C=C/c2ccc(OC(=O)CCNC34CC5CC(CC(C5)C3)C4)c(OC)c2)ccc1OC(=O)CCNC12CC3CC(CC(C3)C1)C2`, the GI50 is 3.45 µM in assay [1]; 3.08 µM in [10]; 11 µM in [2]; 4.41 µM in assay [3]; 4.48 µM in assay [4]; 4.24 µM in [5]. For the same compound, the figures for the GI50 in [7], in assay [8] and in [9] were 1.96 µM, 4.61 µM and 2.4 µM, respectively. In addition, the TGI in assay [1] was 14.8 µM; in [10], 16.2 µM; in assay [2], 23.6 µM; in assay [3], 12.9 µM; in assay [4], 16.3 µM; in assay [5] it was 19.4 µM. Further, the TGI was 4.14 µM in assay [7], 17.5 µM in assay [8] and 7.67 µM in [9].

For `COc1ccc2c(c1)C(=O)c1c-2c(N2CCN(C(=O)CN(C)C)CC2)nc2ccccc12`, the GI50 in assay [1] is 10.4 µM; in assay [10], 5.23 µM; in [2] it was 16 µM; in assay [3], 17.7 µM; in assay [4] it was 18.4 µM; in assay [5], 12.1 µM. In addition, the GI50 was 12.3 µM in assay [7], 15.4 µM in assay [8] and 14.5 µM in assay [9]. In addition, the TGI was 26 µM in assay [1]; 24.8 µM in assay [10]; 33.2 µM in [2]; 41.5 µM in assay [3]; 39 µM in assay [4]; 30.3 µM in assay [5]. Besides, the TGI in assay [7] amounted to 33.6 µM; in [8], 31.8 µM; in assay [9] it was 33.5 µM.

As for `CC1=C([Se]CC(OC(=O)[C@@H](CSSC(C)(C)C)NC(=O)C(C)(C)C)C(=O)NCCCCCC(=O)OCc2ccccc2)C(=O)c2ccccc2C1=O` (stereo partly drawn), the GI50 in [1] was 1.47 µM; in assay [10], 3.24 µM; in [2], 2.16 µM; in assay [3] it was 2.24 µM; in assay [4] it was 2.26 µM; in assay [6], 2.4 µM. Besides, the GI50 in [7] was 2.59 µM; in assay [8], 1.63 µM; in [9] it was 1.76 µM. For the same compound, the TGI was determined as 3.16 µM in [1]; 9.52 µM in assay [10]; 4.94 µM in [2]; 5.41 µM in assay [3]; 5.06 µM in [4]; 7.1 µM in [6]. Further, the TGI turned out to be 7.62 µM in [7], 4.77 µM in [8] and 3.15 µM in assay [9].
